Each structure is given as a SMILES string. pIC50: −log10 of the molar value.

Format in all cases: cell-based
The subject of one assay is MCF-7 cells. Put plainly: Inhibition of cell proliferation of MCF-7 cells (CCK-8, 9 days). The settings on record: treated for 9 days, CCK-8 kit (Table 6). A digest of the protocol:
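MCF-7 cells seeded at 800 cells/well in DMEM with 10% FBS, exposed to a range of compound concentrations for 9 days at 37°C, 5% CO2. Viability read by CCK-8; IC50 derived for proliferation inhibition.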
Background: Tetrazolium dyes change colour on reduction, which living cells bring about.

The target in assay [1] is T1, ERα (Homo sapiens, UniProt P03372).
T1 sequence (P03372 1-595): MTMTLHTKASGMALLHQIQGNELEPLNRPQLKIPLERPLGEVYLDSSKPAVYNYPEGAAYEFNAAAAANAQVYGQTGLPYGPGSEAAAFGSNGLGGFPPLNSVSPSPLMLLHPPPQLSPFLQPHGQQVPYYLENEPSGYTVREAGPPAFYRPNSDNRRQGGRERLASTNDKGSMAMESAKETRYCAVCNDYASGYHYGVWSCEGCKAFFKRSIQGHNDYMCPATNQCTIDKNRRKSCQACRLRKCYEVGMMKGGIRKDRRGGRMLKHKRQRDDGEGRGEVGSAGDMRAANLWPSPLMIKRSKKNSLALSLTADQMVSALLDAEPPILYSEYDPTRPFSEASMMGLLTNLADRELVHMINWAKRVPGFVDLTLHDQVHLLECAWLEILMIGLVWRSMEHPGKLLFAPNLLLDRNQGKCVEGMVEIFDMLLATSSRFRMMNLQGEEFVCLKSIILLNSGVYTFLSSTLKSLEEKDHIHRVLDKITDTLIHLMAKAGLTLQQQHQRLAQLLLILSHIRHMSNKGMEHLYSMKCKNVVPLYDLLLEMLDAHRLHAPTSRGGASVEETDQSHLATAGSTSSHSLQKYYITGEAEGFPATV
Put plainly: Degradation of ERα in T-47D cells (immunoblotting, 4 h). Also on record: host or cells: T-47D. A digest of the protocol:
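T-47D cells were treated with compound (final 0.15-1000 nM, DMSO) for 4 h at 37°C, 5% CO2. Cells were lysed in RIPA buffer with protease inhibitor, and ERα protein in the cleared lysate was measured by immunoblotting.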

Assay [2] deals with T1, ERα. Put plainly: Degradation of ERα in MCF-7 cells (immunoblotting, 4 h). A digest of the protocol:
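MCF-7 cells treated 4 h at 37°C with compounds at 0.15-1000nM final. ERα in lysates measured by immunoblot, with band grayscale normalized to an internal reference protein. Degradation rate calculated against DMSO-treated control.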

In general, pIC50 refers to −log10 of the IC50, conventionally taken in molar units. A low value points to a large IC50. As for `O=C1CCC(N2Cc3c(ccc4c3OCC43CCN(CC(=O)NC4CC5(CCN(c6ccc([C@@H]7c8ccc(O)cc8CC[C@@H]7c7ccccc7)cc6)CC5)C4)CC3)C2=O)C(=O)N1` (some centres unmarked) [H46], the pIC50 in the assay with MCF-7 cells is 6.85. The “Degradation rate (%) of ERα in T-47D cells” value at ERα [1] (1nM compound) worked out at 50%; at ERα [1] (10nM compound) it was 81%. Further, the “Degradation rate (%) of ERα in MCF-7 cells” value amounted to 53% at ERα [2] (1nM compound) and 77% at ERα [2] (10nM compound).
As for `CN(C[C@H]1CC[C@H](C(=O)N2CCC3(CC2)COc2c3ccc3c2CN(C2CCC(=O)NC2=O)C3=O)CC1)[C@H]1CCN(c2ccc([C@@H]3c4ccc(O)cc4CC[C@@H]3c3ccccc3)cc2)C[C@H]1F` (some centres unmarked) [D13], in the assay with MCF-7 cells, the pIC50 is 6.73. Besides, the results for the “Degradation rate (%) of ERα in T-47D cells” value at ERα [1] (1nM compound) and on ERα [1] (10nM compound) were 54% and 82%, respectively. For the same molecule, the entries for the “Degradation rate (%) of ERα in MCF-7 cells” value on ERα [2] (1nM compound) and at ERα [2] (10nM compound) were 42% and 68%, respectively.
Taken in the same sequence, the figures for `O=C1CCC(N2Cc3c(ccc4c3OCC43CCN(C(=O)[C@H]4C[C@H](OC5CCN(c6ccc([C@@H]7c8ccc(O)cc8CC[C@@H]7c7ccccc7)cc6)CC5)C4)CC3)C2=O)C(=O)N1` (some centres unmarked) [K48] were 5.04, 47%, 80%, 20% and 42%.
Turning to `C[C@@H]1Cc2c([nH]c3ccccc23)[C@@H](c2c(F)cc(N3CCC4(CCN(C(=O)CN5CCC6(CC5)COc5c6ccc6c5CN(C5CCC(=O)NC5=O)C6=O)CC4)CC3)cc2F)N1CC(F)F` (some centres unmarked) [A118], in the assay on MCF-7 cells, the pIC50 is 7.79. The “Degradation rate (%) of ERα in T-47D cells” value on ERα [1] (1nM compound) came to 38%; at ERα [1] (10nM compound), 79%. Also, the “Degradation rate (%) of ERα in MCF-7 cells” value is recorded as -7% at ERα [2] (1nM compound) and 55% on ERα [2] (10nM compound).
Taken in the same sequence, the figures for `O=C1CCC(N2Cc3c(ccc4c3OCC43CCN(C(=O)CN4CCC5(CC4)CN(c4ccc([C@@H]6c7ccc(O)cc7CC[C@@H]6c6ccccc6)cc4)C5)CC3)C2=O)C(=O)N1` (some centres unmarked) [B17] were 7.78, 52%, 76%, 37% and 61%.
Taken in the same sequence, the figures for `O=C1CCC(N2Cc3c(ccc4c3OCC43CCN(CC(=O)N4CCC5(CC4)CCN(c4ccc([C@@H]6c7ccc(O)cc7CC[C@@H]6c6ccccc6)cc4)C5)CC3)C2=O)C(=O)N1` (some centres unmarked) [A72] were 5.16, 39%, 51%, 33% and 64%.
Taken in the same sequence, the figures for `O=C1CCC(N2Cc3cc4c(cc3C2=O)CCC2(CN(CC3CCN(C(=O)C5CCN(c6ccc([C@@H]7c8ccc(O)cc8CC[C@@H]7c7ccccc7)cc6)CC5)CC3)C2)O4)C(=O)N1` (some centres unmarked) [K40] were 5.63, 40%, 77%, 14% and 45%.
Turning to `O=C1CCC(N2Cc3cc4c(cc3C2=O)OC2(CC4)CN(C3CC4(CCC5(CC4)CN(c4ccc([C@@H]6c7ccc(O)cc7CC[C@@H]6c6ccccc6)cc4)C5)C3)C2)C(=O)N1` (some centres unmarked) [H26], the pIC50 in the assay on MCF-7 cells is 5.90. Moreover, the “Degradation rate (%) of ERα in T-47D cells” value is given as 1% on ERα [1] (1nM compound) and 2% at ERα [1] (10nM compound). Moreover, the “Degradation rate (%) of ERα in MCF-7 cells” value is on record as -9% on ERα [2] (1nM compound) and -11% on ERα [2] (10nM compound).
For the molecule `O=C1CCC(N2Cc3cc4c(cc3C2=O)CCC2(CN(C(=O)CN3CCC5(CCN(c6ccc([C@@H]7c8ccc(O)cc8CC[C@@H]7c7ccccc7)cc6)CC5)C3)C2)O4)C(=O)N1` (some centres unmarked) [A76], the negative-log IC50 (pIC50) with MCF-7 cells was 4.72. For the same molecule, the “Degradation rate (%) of ERα in T-47D cells” value is 40% at ERα [1] (1nM compound) and 68% at ERα [1] (10nM compound). For the same molecule, the “Degradation rate (%) of ERα in MCF-7 cells” value on ERα [2] (1nM compound) is recorded as -6%; on ERα [2] (10nM compound), 12%.
Taken in the same sequence, the figures for `O=C1CCC(N2Cc3c(ccc4c3OCC43CCN(C4CC5(CCC6(CC5)CN(c5ccc([C@@H]7c8ccc(O)cc8CC[C@@H]7c7ccccc7)cc5)C6)C4)CC3)C2=O)C(=O)N1` (some centres unmarked) [A81] were 7.65, -33%, 45%, -39% and 20%.
Taken in the same sequence, the figures for `O=C1CCC(N2Cc3ccc4c(c3C2=O)OCC2(CCN(C3CC5(CCN(c6ccc([C@@H]7c8ccc(O)cc8CC[C@@H]7c7ccccc7)cc6)CC5)C3)CC2)C4)C(=O)N1` (some centres unmarked) [L9] were 5.85, 15%, 49%, 10% and 29%.
`O=C1CCC(N2Cc3c(ccc4c3OCC43CCN(C4CCN(CC5CCN(c6ccc([C@@H]7c8ccc(O)cc8CC[C@@H]7c7ccccc7)cc6)CC5)CC4)CC3)C2=O)C(=O)N1` (some centres unmarked) [G1]: the pIC50 with MCF-7 cells is 8.38. In addition, the “Degradation rate (%) of ERα in T-47D cells” value at ERα [1] (1nM compound) is on record as 22%; at ERα [1] (10nM compound), 53%. The “Degradation rate (%) of ERα in MCF-7 cells” value on ERα [2] (1nM compound) is on record as 25%; on ERα [2] (10nM compound), 35%.
Taken in the same sequence, the figures for `O=C1CCC(N2Cc3c(ccc4c3OCC43CCN(CC(=O)N4CC5(CCC(C#Cc6ccc([C@@H]7c8ccc(O)cc8CC[C@@H]7c7ccccc7)cc6)CC5)C4)CC3)C2=O)C(=O)N1` (some centres unmarked) [B30] were 8.00, 15%, 46%, 19% and 40%.
Turning to `O=C1CCC(N2Cc3c(ccc4c3OCC43CCN(c4ccc(C(=O)N5CCN(c6ccc([C@@H]7c8ccc(O)cc8CC[C@@H]7c7ccccc7)cc6)CC5)cn4)CC3)C2=O)C(=O)N1` (some centres unmarked) [J2], in the assay with MCF-7 cells, the pIC50 was 3.52. Besides, the entries for the “Degradation rate (%) of ERα in T-47D cells” value at ERα [1] (1nM compound) and on ERα [1] (10nM compound) were 37% and 67%, respectively. Also, the “Degradation rate (%) of ERα in MCF-7 cells” value at ERα [2] (1nM compound) was found to be 21%; on ERα [2] (10nM compound), 41%.
For the molecule `C[C@@H]1Cc2cc(O)ccc2C(c2c(F)cc(N3CCC(N4CCC(C(=O)N5CCC6(CC5)COc5c6ccc6c5CN(C5CCC(=O)NC5=O)C6=O)CC4)CC3)cc2F)N1CC(F)F` (some centres unmarked) [F9], the negative logarithm of the IC50 (pIC50) with MCF-7 cells is 5.36. Besides, the entries for the “Degradation rate (%) of ERα in T-47D cells” value on ERα [1] (1nM compound) and on ERα [1] (10nM compound) were 42% and 38%, respectively. In addition, the “Degradation rate (%) of ERα in MCF-7 cells” value is 46% on ERα [2] (1nM compound) and 45% at ERα [2] (10nM compound).
Turning to `C[C@@H]1Cc2c([nH]c3ccccc23)[C@@H](c2c(F)cc(N3CCC(C(=O)N4CCC(N5CCC6(CC5)COc5c6ccc6c5CN(C5CCC(=O)NC5=O)C6=O)[C@H](F)C4)CC3)cc2F)N1CC(F)F` (some centres unmarked) [D9], in the assay on MCF-7 cells, the negative logarithm of the IC50 (pIC50) was 7.96. Also, the “Degradation rate (%) of ERα in T-47D cells” value at ERα [1] (1nM compound) is reported as 52%; on ERα [1] (10nM compound), 82%. The “Degradation rate (%) of ERα in MCF-7 cells” value on ERα [2] (1nM compound) came out at 22%; at ERα [2] (10nM compound) it was 55%.
Molecule `C[C@@H]1Cc2cc(O)ccc2C(c2c(F)cc(N3CCC(C(=O)N4CCC(N5CCC6(CC5)COc5c6ccc6c5CN(C5CCC(=O)NC5=O)C6=O)[C@H](F)C4)CC3)cc2F)N1CC(F)F` (some centres unmarked) [F10] showed a negative-log IC50 (pIC50) with MCF-7 cells of 8.42. For the same molecule, the “Degradation rate (%) of ERα in T-47D cells” value turned out to be 59% at ERα [1] (1nM compound) and 65% at ERα [1] (10nM compound). In addition, the “Degradation rate (%) of ERα in MCF-7 cells” value at ERα [2] (1nM compound) is recorded as 53%; at ERα [2] (10nM compound), 43%.
`O=C1CCC(N2Cc3cc4c(cc3C2=O)CCC2(CN(C3CCN(C(=O)c5ccc([C@@H]6c7ccc(O)cc7CC[C@@H]6c6ccccc6)cc5)CC3)C2)O4)C(=O)N1` (some centres unmarked) [H10] showed a pIC50 in the assay on MCF-7 cells of 5.03. In addition, the “Degradation rate (%) of ERα in T-47D cells” value at ERα [1] (1nM compound) is listed as 0%; at ERα [1] (10nM compound) it was 36%. Moreover, the results for the “Degradation rate (%) of ERα in MCF-7 cells” value at ERα [2] (1nM compound) and on ERα [2] (10nM compound) were -28% and -4%, respectively.
Consider `O=C1CCC(N2Cc3c(ccc4c3OCC43CCN(CC4CCN(C5CCN(c6ccc([C@@H]7c8ccc(O)cc8CC[C@@H]7c7ccccc7)cc6)CC5)CC4)CC3)C2=O)C(=O)N1` (some centres unmarked) [K6], for which the negative-log IC50 (pIC50) in the assay on MCF-7 cells is 6.14. Moreover, the figures for the “Degradation rate (%) of ERα in T-47D cells” value at ERα [1] (1nM compound) and on ERα [1] (10nM compound) were 36% and 58%, respectively. The “Degradation rate (%) of ERα in MCF-7 cells” value on ERα [2] (1nM compound) amounted to 17%; at ERα [2] (10nM compound), 62%.
